IC50 data for seven molecules are collected here from patent US9006426B2, “Squaric acid derivatives as inhibitors of the nicotinamide” (Topotarget A/S, priority 2008, dated 2015).

As a reminder, the IC50 is the concentration needed to halve the response being measured. Higher therefore signals a need for much substance.

One experiment has as its system A2780 cells. The experiment is described as follows: In vitro cell proliferation assay (SRB assay). The class given is cell-based. Conditions: Homo sapiens, 72 h incubation, SRB staining. The method, then: In Vitro Cell Proliferation Assay (SRB Assay)
A2780 cells were seeded in 96-well plates at 2000 cells/well in 100 μL of culture medium, 4 wells were left empty for media only controls.
After 24 h the compound titrations were performed, in a separate dilution plate, by serially diluting the compounds of general formula (I) in culture medium. A 100 μL of each dilution was added to the plated cells, this was done in quadruplicate, and controls (e.g. DMSO and blanks) were included. The plates were incubated for 72 h at 37° C. in a CO2 incubator. 50 μL cold 50% trichloroacetic acid was then added to each well. After 1 h the supernatant was discarded and the wells were washed 5 times with tap water and dried at room temperature. […] Bound stain was subsequently solubilized by addition of 200 μL 10 mM Tris pH 10.5 to each well, and the plates were shaken for at least 30 minutes, and the absorbance read on an automated plate reader at 515 nm. Using the nine absorbance measurements [time zero, (Tz), control growth, (C), and test growth in the presence of drug at the seven concentration levels (Ti)], the percentage growth is calculated at each of the drug concentrations levels after averaging the quadruplet wells. Percentage growth inhibition is calculated as: [(Ti−Tz)/(C−Tz)]×100 for concentrations for which Ti>/=Tz [(Ti−Tz)/Tz]×100 for concentrations for which Ti<Tz. […]
The molecule `O=c1c(NCCCCCCOc2ccc(Cl)cc2)c(Nc2ccncc2)c1=O` [SQ-7B, 3-(6-(4-chlorophenoxy)hexylamino)-4-(pyridine-4-ylamino)-cyclobut-3-ene-1,2-dione] came in with an IC50 of 40 nM.

The subject of another experiment is A2780 cells. In words: In vitro cell proliferation assay (WST-1 assay). The class given is cell-based. Conditions: Homo sapiens, total incubation time 72 h, WST-1 reagent. As to the method: In Vitro Cell Proliferation Assay (WST-1 Assay)
A2780 cells were seeded in 96-well plates at 3×10^3 cells/well in 100 μL of culture medium, 8 wells were left empty for media only controls.
After 24 h the compound titrations were performed, in a separate dilution plate, by serially diluting the compounds of general formula (I) in culture medium. A 100 μL of each dilution was added to the plated cells, this was done in triplicate, and controls (e.g. DMSO and blanks) were included. The plates were incubated for 24 h at 37° C. in a CO2 incubator. The compound titrations were repeated in a separate dilution plate after 24 h. The media plus compound from the assay plates were then aspirated. A 100 μL of media was then added to all wells, followed by 100 μL of each compound dilution. The plates were incubated for a further 48 h at 37° C. in a CO2 incubator (total incubation time 72 h). The number of viable cells was then assessed using Cell Proliferation Reagent WST-1. 10 μL of WST-1 reagent added to each well and incubated for one to four hours at 37° C. in CO2 incubator. The absorbance was measured (450 nm/690 nm).
The activity of compounds of general formula (I) in reducing the number of viable cells was calculated as: % activity=[(S^c−B)/(S^o−B)]×100
S^c denotes signal measured in the presence of test compound, S^o denotes signal detected in the absence of compound, and B denotes background signal, measured in blank wells containing medium only. Analyse data using GraphPad Prism.
Results can be seen in Table 1, wherein IC50 is the concentration giving 50% activity.
In turn, `CC(C)N(OCCN1CCOCC1)S(=O)(=O)CCCCCCNc1c(Nc2ccncc2)c(=O)c1=O` [Compound 1047, 6-(3,4-dioxo-2-(pyridin-4-ylamino)cyclobut-1-enylamino)-N-isopropyl-N-(2-morpholinoethoxy)hexane-1-sulfonamide] registered a 50% inhibitory concentration (IC50) of 0.12 nM.

Take `O=c1c(NCCCCCCS(=O)(=O)N(CCN2CCOCC2)C2CCCCC2)c(Nc2ccncc2)c1=O` [Compound 1067, N-cyclohexyl-6-(3,4-dioxo-2-(pyridin-4-ylamino)cyclobut-1-enylamino)-N-(2-morpholinoethyl)hexane-1-sulfonamide]: 1.13 nM corresponded to half-maximal inhibition (IC50).

`O=c1c(NCCCCCCS(=O)(=O)N(OCCN2CCOCC2)C2CCCC2)c(Nc2ccncc2)c1=O` [Compound 1058, N-cyclopentyl-6-(3,4-dioxo-2-(pyridin-4-ylamino)cyclobut-1-enylamino)-N-(2-morpholinoethoxy)hexane-1-sulfonamide] registered an IC50 of 0.75 nM.

As to `O=C(CCCCCCNc1c(Nc2ccncc2)c(=O)c1=O)N(Cc1ccccc1)OCCN1CCOCC1` [Compound 1016, N-benzyl-7-(3,4-dioxo-2-(pyridin-4-ylamino)cyclobut-1-enylamino)-N-(2-morpholinoethoxy)heptanamide], the half-inhibitory concentration (IC50) worked out at 0.56 nM.

Molecule `CN(OCCC1CCCCC1)S(=O)(=O)CCCCCCNc1c(Nc2ccncc2)c(=O)c1=O` [Compound 1011, N-(2-cyclohexylethoxy)-6-(3,4-dioxo-2-(pyridin-4-ylamino)cyclobut-1-enylamino)-N-methylhexane-1-sulfonamide] displayed an IC50 of 0.085 nM.

With `O=c1c(NCCCCCCS(=O)(=O)N(CCCN2CCOCC2)CCN2CCOCC2)c(Nc2ccncc2)c1=O` [Compound 1019, 6-(3,4-dioxo-2-(pyridin-4-ylamino)cyclobut-1-enylamino)-N-(2-morpholinoethyl)-N-(3-morpholinopropyl)hexane-1-sulfonamide], half-maximal inhibition (IC50) required 26 nM.
